Assay [1] relates to K. pneumoniae ATCC 13883. Description: MIC, broth microdilution (CLSI). The assay is classed as cell-based, Klebsiella pneumoniae. The settings on record: for MIC with β-lactamase inhibitor (βI): + 4 μg/mL clavulanic acid; for MIC ratio 0/1: 0 and 1 µg/mL supplemental iron (Table S2); for MIC ratio 1/0: 1 versus 0 µg/mL supplemental iron (peer review file table). As for the experimental part:
All bacterial strains (see description and sources Table S1) were stored at −80 °C, and grown on tryptone soya agar (TSA) at 35 °C. The iron-deprived (ID)-MHBCA (cation-adjusted Muller-Hinton Broth, Becton Dickinson, Mississauga, ON, Canada) medium was prepared as reported by refs. [21],[50]. Briefly, MHBCA was treated with 10% Chelex® 50-100 mesh (Sigma) and stirred for 6 h at room temperature. The resin was removed by filtration. Divalent Ca^2+ (CaCl2), Mg^2+ (MgCl2), and Zn^2+(ZnSO4), were then added in the iron-depleted medium at 22, 12, and 1 μg/ml respectively. Finally, the pH was adjusted to 7.3, and the medium was sterilized with a 0.2-μm filter. Regular MHBCA (i.e., not treated with Chelex®) was used to compare the inhibitory activity of conjugates in iron-sufficient conditions. The resin used for Chelex treatment was always fresh and had never been regenerated, ensuring consistent iron removal.
Minimal inhibitory concentrations (MICs) were performed using a broth microdilution technique according to the Clinical and Laboratory Standards Institute (CLSI) guidelines. MICs were determined in MHBCA and in ID-MHBCA. To check the impact of β-lactamases, MICs in the presence of a β-lactamase inhibitor were also determined. The inhibitor was homogenized at 2X the final concentration and added to the bacterial inoculum just before distributing cells into the wells containing the drug dilutions. The final concentration of each inhibitor was 4 μg/mL for clavulanic acid (tested against K. pneumoniae) and 200 μg/mL for 3-aminophenylboronic acid (tested against P. aeruginosa and A. baumannii).
In general terms: Broth dilution looks for growth in wells or tubes with falling amounts of substance.

For assay [2], the target named is T1, PBP1a (Pseudomonas aeruginosa, UniProt Q07806).
T1 construct: using bacterial membranes as the source of PBPs; endogenous in cells; host or cells: P. aeruginosa ATCC 27853 membrane preparation
The experiment in a line: Membrane PBP binding assay, competition with Bocillin FL. The protocol: (§1) Membrane extracts containing PBPs were obtained as described above. Briefly, all species were grown in 1 L of TSB until the OD600 reached 0.9. The washed pellet was incubated with lysozyme (400 μg/mL), DNase (10 μg/mL) RNase(10 μg/mL) and anti-protease cocktail (200 mg/20 mL). Lysis was done with a French press (20,000 psi) and membrane protein were pelleted by ultracentrifugation steps (100,000 × g). The pellet was suspended in a minimal volume (300–500 μL) of KP 0.05 M buffer at pH 7. The protein concentration in the membrane preparations was determined with the Micro BCA TM Protein Assay Kit (Thermo Fisher Scientific, Rockford, IL) using bovine serum albumin as a standard.
(§2) The PBP binding assay was done as described previously[36],[56],[57]. For each antibiotic concentration tested, a quantity of 25 to 40 μg of membrane preparation was used as the source of PBPs, depending on the species. For the purified PaPBP3, 150 ng was used in the assay. First, increasing concentrations of the test antibiotic was added to the membrane or purified PaPBP3 preparations and incubated for 10 min at 30 °C. The reporter molecule Bocillin FL was then added at 12.5 μM for the membrane PBPs preparations and at 500 nM for the pure PaPBP3 samples for an additional 20 min at 30 °C. All reactions were stopped with the addition of the Laemmli-loading buffer (Bio-Rad) containing fresh β-mercaptoethanol (Sigma). All reactions were then heated at 100°C for 3 min before migration on SDS-polyacrylamide discontinuous gel system (7.5% stacking and 10% separating). Control samples without Bocillin FL were also included to highlight autofluorescent proteins that are not PBPs.
(§3) To be able to visualize labeled PBPs after electrophoresis, gels were rinsed in water and fixed in a solution of 50% methanol and 7% acetic acid for 30 min. The fluorescent images of gels were obtained with the Typhoon FLA 9500 instrument (GE-Healthcare Bio-Sciences Inc., Baie-d’Urfé, QC, CA) using a 473 nm excitation wavelength. To obtain quantifiable data, the software Quantity One 1D analysis was used (version 4.6.6; Bio-Rad Laboratories, Richmond, CA). The volume (intensity × constant area) of each PBP was measured. […] All IC50 data were obtained from at least two independent PBP binding assays using two different sets of compound concentrations using a linear regression. The PBP profiles were confirmed, and the PBP numbering were determined using published data and individual molecular weights. […] For example, amdinocillin (Sigma) was used for PBP2 identification. […] The IC50 for PBP 2 of P. aeruginosa was measured by including the SDS-PAGE comigrating autofluorescent protein in the background, as done previously.

Assay [3] has as its target T2, PBP2 (Pseudomonas aeruginosa, UniProt Q9X6V3).
T2 construct: using bacterial membranes as the source of PBPs; endogenous in cells; host or cells: P. aeruginosa ATCC 27853 membrane preparation
T2 sequence (Q9X6V3 1-646): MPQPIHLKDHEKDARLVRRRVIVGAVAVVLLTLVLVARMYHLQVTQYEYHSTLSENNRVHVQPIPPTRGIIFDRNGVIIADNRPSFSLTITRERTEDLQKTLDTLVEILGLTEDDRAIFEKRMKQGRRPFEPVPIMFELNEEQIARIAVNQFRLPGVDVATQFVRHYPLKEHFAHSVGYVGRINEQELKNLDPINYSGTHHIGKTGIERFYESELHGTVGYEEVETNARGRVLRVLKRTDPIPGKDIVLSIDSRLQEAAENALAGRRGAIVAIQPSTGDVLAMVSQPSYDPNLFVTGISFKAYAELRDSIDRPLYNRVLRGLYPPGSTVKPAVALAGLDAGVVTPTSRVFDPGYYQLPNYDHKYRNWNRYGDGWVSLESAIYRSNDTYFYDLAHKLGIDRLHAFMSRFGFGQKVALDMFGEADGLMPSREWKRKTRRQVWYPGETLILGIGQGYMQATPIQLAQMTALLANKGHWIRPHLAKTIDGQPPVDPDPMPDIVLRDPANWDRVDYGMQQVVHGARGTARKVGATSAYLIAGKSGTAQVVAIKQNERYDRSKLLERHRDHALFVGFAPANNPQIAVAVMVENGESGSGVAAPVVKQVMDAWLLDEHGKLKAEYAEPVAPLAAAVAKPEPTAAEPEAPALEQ
The assay is described as above. As for the experimental part:
as §1, §2, §3

Setting [4] is: ID-MHBCA (−), 0 µg/mL supplemental iron.
The mark [5] stands for this setting: Klebsiella pneumoniae, ATCC13883, ID-MHBCA (−), 0 µg/mL supplemental iron.
Setting [6] is: Klebsiella pneumoniae, ATCC13883, ID-MHBCA + 1 µg/mL supplemental iron.
Where [7] appears, read: Klebsiella pneumoniae, ATCC13883, MHBCA (+).
[8] abbreviates: P. aeruginosa ATCC 27853 membranes, read-out: IC50 PBP1a.
[9] abbreviates: P. aeruginosa ATCC 27853 membranes, read-out: IC50 PBP2.
[10] abbreviates: Klebsiella pneumoniae, ATCC13883, ID-MHBCA + 0.1 µg/mL supplemental iron.

Values after ≈ are worked out from the molar mass of the structure shown. Values joined by “and” are separate entries in the source; they are usually repeats but may differ in a detail not shown here. Equal values may be shown once. Read-outs that look alike come from different tables or passages of the source. Where only a bound is given, the exact number is not on record here.

Broadly, the MIC is the smallest concentration in the dilution series that meets the test's criterion for growth inhibition. Broadly, the IC50 is the concentration that gives 50% inhibition.

T1 sequence (Q07806 whole entry): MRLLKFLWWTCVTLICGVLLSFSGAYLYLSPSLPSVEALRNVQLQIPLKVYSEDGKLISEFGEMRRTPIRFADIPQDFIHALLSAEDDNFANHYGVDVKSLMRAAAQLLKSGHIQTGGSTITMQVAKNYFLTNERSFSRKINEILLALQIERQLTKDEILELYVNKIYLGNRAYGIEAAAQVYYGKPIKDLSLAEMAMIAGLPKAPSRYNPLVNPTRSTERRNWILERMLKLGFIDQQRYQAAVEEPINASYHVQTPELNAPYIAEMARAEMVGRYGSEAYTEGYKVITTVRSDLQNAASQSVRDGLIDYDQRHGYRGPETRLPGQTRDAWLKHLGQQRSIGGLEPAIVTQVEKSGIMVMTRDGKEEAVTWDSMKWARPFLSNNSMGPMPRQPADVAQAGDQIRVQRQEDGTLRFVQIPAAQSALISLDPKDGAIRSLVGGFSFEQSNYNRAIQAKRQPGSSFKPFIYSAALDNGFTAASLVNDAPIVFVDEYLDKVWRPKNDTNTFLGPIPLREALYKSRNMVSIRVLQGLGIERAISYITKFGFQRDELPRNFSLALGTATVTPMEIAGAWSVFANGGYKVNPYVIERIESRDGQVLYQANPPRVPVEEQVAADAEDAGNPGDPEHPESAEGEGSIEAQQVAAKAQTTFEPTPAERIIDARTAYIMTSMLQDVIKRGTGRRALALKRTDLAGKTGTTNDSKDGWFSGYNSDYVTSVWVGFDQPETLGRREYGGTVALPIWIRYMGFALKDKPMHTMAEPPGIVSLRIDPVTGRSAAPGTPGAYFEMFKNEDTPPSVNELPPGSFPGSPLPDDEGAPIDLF

With `O=C(CCC(=O)N(CCCCNC(=O)c1cccc(O)c1O)CCCNC(=O)c1cccc(O)c1O)NCCCCCN(O)C(=O)CCCC(=O)NC(C(=O)NC1C(=O)N2C(C(=O)O)=C(Cl)CSC12)c1ccccc1` (stereo not drawn) [MCEF, mixed ligand bis-catechol-mono-hydroxamate-cefaclor], the “MIC ratio unconjugated β-lactam/conjugate” value in assay [1] (ID-MHBCA) and in assay [1] (MHBCA) was less than 0.016 throughout. Moreover, the MIC in assay [1] (setting [4]), in assay [1] (setting [5]), in assay [1] (setting [6]), in assay [1] (setting [7]) and in assay [1] (MHBCA (+)) was greater than 200 µM throughout. The “MIC with β-lactamase inhibitor (βI)” value in assay [1] (ID-MHBCA) came out at 200 µM; in assay [1] (MHBCA), 13 µM. The results for the IC50 in assay [2] (setting [8]) and in assay [3] (setting [9]) were 0.39 ± 0.35 µM and 6.74 ± 0.03 µM, respectively.
Consider `N[C@@H](C(=O)N[C@@H]1C(=O)N2C(C(=O)O)=C(Cl)CS[C@H]12)c1ccccc1` [CEF, cefaclor, reference compound], for which the “MIC ratio 0/1” value in assay [1] (ID-MHBCA) came out at 2. In addition, the “MIC ratio 1/0” value in assay [1] (ID-MHBCA) is 2. The “MIC with β-lactamase inhibitor (βI)” value in assay [1] (ID-MHBCA) and in assay [1] (MHBCA) was 1.6 µM in each case. For the same compound, the MIC in assay [1] (setting [5]) stood at 3.1 µM (≈ 1.14 µg/mL); in assay [1] (setting [10]), 3.1 µM; in assay [1] (setting [6]), 6.3 µM; in assay [1] (setting [7]), 3.1 µM (≈ 1.14 µg/mL). Moreover, the IC50 in assay [2] (setting [8]) was 33.9 ± 6.9 µM; in assay [3] (setting [9]), greater than 50 µM.
With `O=C(CN(CCCCNC(=O)c1cccc(O)c1O)C(=O)c1cccc(O)c1O)NC(C(=O)NC1C(=O)N2C(C(=O)O)=C(Cl)CCC12)c1ccccc1` (stereo not drawn) [BLOR, bis-catechol (azotochelin)-loracarbef], the “MIC ratio unconjugated β-lactam/conjugate” value in assay [1] (ID-MHBCA) came to 16; in assay [1] (MHBCA), 8. For the same compound, in assay [1] (ID-MHBCA), the “MIC ratio 0/1” value amounted to 64. Moreover, the “MIC ratio 1/0” value in assay [1] (ID-MHBCA) came out at 64. The “MIC with β-lactamase inhibitor (βI)” value in assay [1] (ID-MHBCA) was 0.1 µM; in assay [1] (MHBCA) it was 0.2 µM. Besides, the MIC turned out to be 0.1 µM (≈ 0.075 µg/mL) in assay [1] (setting [5]), 0.4 µM in assay [1] (setting [10]), 6.3 µM in assay [1] (setting [6]) and 0.2 µM (≈ 0.15 µg/mL) in assay [1] (setting [7]). Further, the IC50 in assay [2] (setting [8]) was 0.58 ± 0.04 µM; in assay [3] (setting [9]) it was 4.8 ± 3 µM.
For `N[C@@H](C(=O)N[C@@H]1C(=O)N2C(C(=O)O)=C(Cl)CC[C@H]12)c1ccccc1` [LOR, loracarbef, reference compound], the MIC in assay [1] (setting [4]) is 1.6 µM (≈ 0.56 µg/mL); in assay [1] (ID-MHBCA + 0.1 µg/mL supplemental iron) it was 1.6 µM; in assay [1] (ID-MHBCA + 1 µg/mL supplemental iron), 3.1 µM; in assay [1] (MHBCA (+)) it was 1.6 µM (≈ 0.56 µg/mL). In assay [1] (ID-MHBCA), the “MIC ratio 0/1” value amounted to 2. For the same compound, the “MIC ratio 1/0” value in assay [1] (ID-MHBCA) turned out to be 2. The “MIC with β-lactamase inhibitor (βI)” value in assay [1] (ID-MHBCA) and in assay [1] (MHBCA) was 1.6 µM throughout. Besides, the IC50 in assay [2] (setting [8]) and in assay [3] (setting [9]) was greater than 50 µM in each case.
As for `CC1(C)S[C@@H]2[C@H](NC(=O)[C@H](N)c3ccccc3)C(=O)N2[C@H]1C(=O)O` [AMP, ampicillin, reference compound], the MIC in assay [1] (setting [4]), in assay [1] (setting [5]), in assay [1] (setting [6]), in assay [1] (setting [7]) and in assay [1] (MHBCA (+)) was greater than 200 µM each time. The “MIC with β-lactamase inhibitor (βI)” value in assay [1] (ID-MHBCA) is 6.3 µM; in assay [1] (MHBCA) it was 6.3 μM and 6.3^d μM. Also, the IC50 is 1.9 ± 1.5 µM in assay [2] and greater than 50 µM in assay [3].
For `CC1(C)SC2C(NC(=O)C(NC(=O)CN(CCCCNC(=O)c3cccc(O)c3O)C(=O)c3cccc(O)c3O)c3ccccc3)C(=O)N2C1C(=O)O` (stereo not drawn) [BAMP, bis-catechol (azotochelin)-ampicillin], the “MIC ratio unconjugated β-lactam/conjugate” value in assay [1] (ID-MHBCA) and in assay [1] (MHBCA) was “No activity” each time. Moreover, the MIC in assay [1] (setting [4]), in assay [1] (setting [5]), in assay [1] (setting [6]), in assay [1] (setting [7]) and in assay [1] (MHBCA (+)) was greater than 200 µM throughout. Moreover, the “MIC with β-lactamase inhibitor (βI)” value in assay [1] (ID-MHBCA) was 0.4 µM; in assay [1] (MHBCA), 1.6 µM. In addition, the half-maximal inhibitory concentration (IC50) was 1.4 ± 0.7 µM in assay [2] (setting [8]) and greater than 50 µM in assay [3] (setting [9]).
